Measurements reported in patent US12552806B2, “Androgen receptor regulation by small molecule enantiomers” (University of Southern California, priority 2020, dated 2026).
“Also recorded” adds a separate entry of the source.

What was measured:
AR = test: ARE-luciferase assay in cells expressing ARE-luciferase (enantiomer pairs); type: cell-based; conditions: 10 μM mixture + 1 nM R1881, 24 h
Description: (§1) To test for corresponding transcriptional activation, we performed assays in cells expressing ARE-luciferase. […] Next, we examined gene expression in VCaP cells, a hormone-responsive but independent model of CRPC highly expressing AR.
(§2) PC3 and VCaP cell lines were obtained from ATCC and cultured as recommended. Generation and culture of PC3 GFP-AR cells were described previously (14). ARE-luciferase cells were generated using Cignal Lenti AR Reporter (Qiagen). Cell lines were authenticated using NIST-approved short tandem repeat DNA profiling and tested negative for mycoplasma. Drug treatments were conducted after overnight culture in phenol red-free media supplemented with charcoal:dextran stripped FBS.
(§3) Luminometer Assays. For ARE-luciferase, luciferase substrate was added to lysed cells after 24-h treatment. For viability, cells were lysed with CellTiter-Glo 3D Cell Viability Assay (Promega) after 6 d of treatment. Measurements were performed in 96-well plates (Corning) using a GloMax 96 Microplate Luminometer (Promega).

[1] = test system: AR-regulated genes in VCaP cells; test: RT-qPCR array of AR target genes in VCaP cells; type: cell-based; conditions: 82 AR target genes, vs NTC and DHT
Method: as §1
RT-qPCR Array. RNA was isolated using the Illustra RNAspin Mini Kit (GE Healthcare). RNA was transcribed to cDNA using RT2 First Strand Kit (Qiagen). RT-qPCR was performed using Biorad CFX Connect on a RT2 Profiler PCR Array Human Androgen Receptor Signaling Targets (Qiagen).

[2] = Microsome stability assay; type: in vitro ADME, human; conditions: for toxic metabolite BMS-501949 detected in LCMS: 8 h incubation, o-fluoro-BMS-501949 for EITM-1707
Method: Microsome stability assays. In vitro metabolism was determined as described previously. Specifically, to measure metabolism of parent compounds, the higher throughput protocol was applied, in which 0.5 mg/ml pooled human liver microsomes (Sigma) were mixed with 1 μM drugs and phosphate buffer (0.1 M, pH 7.4) in 96-well plates. Enzymatic reactions were started by adding 1 mM NADPH (Sigma Aldrich) followed by incubation at 37° C. Fractions were quenched by transfer to ice-cold acetonitrile after the indicated incubation times. Samples were analyzed using liquid chromatography-mass spectrometry (LC/MS-MS). Rates of intrinsic clearance were determined from the amount of the parent compound consumed per min per mg of microsomal protein as described previously. To analyze accumulating metabolites, the basic protocol was used, and microsomes were incubated with 10 μM drugs for 8 h.

AR T878A = biological target: T1, AR T878A (Homo sapiens, UniProt P10275, T878A); test: cell-based; type: cell-based
T1 construct: LNCaP cells expressing AR T878A; endogenous in cells; host or cells: LNCaP-luc (LNCaP stably carrying the Cignal Lenti AR Reporter)
T1 sequence (P10275 1-920 T878A): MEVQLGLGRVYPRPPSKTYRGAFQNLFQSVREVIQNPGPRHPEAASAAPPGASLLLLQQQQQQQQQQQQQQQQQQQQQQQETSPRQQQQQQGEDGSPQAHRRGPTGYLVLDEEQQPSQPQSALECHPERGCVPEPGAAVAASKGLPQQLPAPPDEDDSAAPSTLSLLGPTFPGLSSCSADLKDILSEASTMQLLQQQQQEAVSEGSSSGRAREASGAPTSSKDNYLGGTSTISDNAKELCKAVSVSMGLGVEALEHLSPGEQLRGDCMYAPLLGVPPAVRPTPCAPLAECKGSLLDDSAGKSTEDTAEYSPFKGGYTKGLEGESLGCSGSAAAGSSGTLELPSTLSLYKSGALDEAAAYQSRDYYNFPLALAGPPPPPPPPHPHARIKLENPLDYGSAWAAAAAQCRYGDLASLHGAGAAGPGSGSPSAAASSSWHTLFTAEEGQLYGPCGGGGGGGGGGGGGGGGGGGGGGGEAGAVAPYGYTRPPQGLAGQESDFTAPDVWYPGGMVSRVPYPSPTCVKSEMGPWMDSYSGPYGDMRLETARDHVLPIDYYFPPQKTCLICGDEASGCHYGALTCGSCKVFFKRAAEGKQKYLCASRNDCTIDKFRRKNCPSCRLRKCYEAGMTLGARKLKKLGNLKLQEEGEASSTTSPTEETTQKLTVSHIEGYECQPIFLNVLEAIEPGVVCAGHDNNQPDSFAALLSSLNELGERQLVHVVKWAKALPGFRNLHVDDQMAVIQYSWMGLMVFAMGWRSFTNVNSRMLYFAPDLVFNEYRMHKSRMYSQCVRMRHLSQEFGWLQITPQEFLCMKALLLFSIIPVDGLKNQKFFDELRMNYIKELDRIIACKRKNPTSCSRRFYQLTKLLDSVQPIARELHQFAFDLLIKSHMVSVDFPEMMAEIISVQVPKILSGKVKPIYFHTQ
Description: We generated a LNCaP cell line stably expressing luciferase controlled by androgen response elements (ARE-luciferase).
Cell Culture and Treatments. The LNCaP cell line were obtained from ATCC, cultured in RPMI1640 (Corning) supplemented with 10% heat-inactivated GemCell bovine serum (Gemini Bio-Products) and Penicillin-Streptomycin (Gemini Bio-Products). Cell lines stably expressing ARE-luciferase (LNCaP-luc) was generated using Cignal Lenti AR Reporter (Qiagen) and was continuously cultured with 500 ng/mL Puromycin (Gibco) for positive selection. Cells were maintained at 37° C. in a humidified incubator with 5% carbon dioxide. All cell lines were authenticated using NIST approved short tandem repeat (STR) DNA profiling performed by the University of Arizona Genetics Core and routinely tested negative for mycoplasma.
Luciferase assay. LNCaP-luc cells were seeded in clear flat bottom white polystyrene 96-well plates (Corning) at a density of 12,000 cells/well. […] Dose-response curves were fit using the delta method and t-distribution (n=1). Compounds are tested up to 10 μM.

VCaP cells = test: VCaP viability assay (CellTiter-Glo); type: cell-based
Method: as §2, §3

LNCaP cells = test: LNCaP cell viability assay (CellTiter-Glo); type: cell-based; conditions: 1 and 10 μM drug + 60 pM R1881, 5 days
Method: LNCaP cell viability assay. Cells were seeded into 96-well fibronectin coated (1 ug/cm^2) plates (CellCarrier, PerkinElmer) at a density of 5,000 cells/well. […] Drug-treated cells were lysed with CellTiter-Glo 3D Cell Viability Assay (Promega) and transferred to white 96-well plates (Corning). Luminescence was measured utilizing GloMax 96 Microplate Luminometer (Promega). Analysis was conducted in the R statistical environment (v 3.6.0). […] Visualizations were facilitated by the ggplot2 package (v3.2.1), with standard error (S.E.) shown where appropriate.

Row | Structure (SMILES) | (S)-enantiomer contamination that halved the drug effect, ARE-luciferase (AR; 95% CI (2.1%, 2.9%)) | (S)-enantiomer contamination that canceled out the antagonist effect, ARE-luciferase (AR; 95% CI (6.0%, 12.0%)) | AR-dependent gene expression, in words [1] | toxic metabolite BMS-501949 detected in LCMS ([2]; 10 μM drug) | toxic metabolite BMS-501949 detected in LCMS ([2]; 10 μM drug, listed as (R)-EITM-1707) | active metabolite detected in LCMS ([2]; Unnamed metabolite (predicted active) for EITM compounds, BMS-570511 for BMS-641988, 10 μM drug, 8 h) | half-life at 1 μM ([2]; human, pooled human liver microsomes, pH 7.4, liver microsomes, 1 μM drug, read-out: T½) | microsomal CLint at 1 μM ([2]; human, pooled human liver microsomes, pH 7.4, liver microsomes, read-out: rate of intrinsic clearance) | AR agonism / antagonism in LNCaP ARE-luciferase, in words (AR T878A) | EC50 (AR T878A) | Emax (AR T878A; LNCaP) | R1881-induced growth, in words (VCaP cells; 10 μM drug + 1 nM R1881, 6-d treatment) | IC50 (VCaP cells; Homo sapiens, VCaP) | LNCaP proliferation / viable cells, in words (LNCaP cells)
1 | C[C@@]12O[C@@](C)(C[C@@H]1NC(=O)c1cc[nH]n1)[C@@H]1C(=O)N(c3ccc(C#N)c(C(F)(F)F)c3)C(=O)[C@@H]12 [(S)-EITM-1702, N-((3aS,4S,5S,7S,7aR)-2-(4-cyano-3-(trifluoromethyl)phenyl)-4,7-dimethyl-1,3-dioxooctahydro-1H-4,7-epoxyisoindol-5-yl)-1H-pyrazole-3-carboxamide] | 2.5% | 9% |  |  |  |  |  |  |  |  |  |  |  | 
2 | CC(O)c1cc(C(=O)N[C@@H]2C[C@@]3(C)O[C@]2(C)[C@@H]2C(=O)N(c4ccc(C#N)c(C(F)(F)F)c4F)C(=O)[C@@H]23)n[nH]1 (stereo partly drawn) [EITM-1707, N-((3aR,4R,5R,7R,7aS)-2-(4-cyano-2-fluoro-3-(trifluoromethyl)phenyl)-4,7-dimethyl-1,3-dioxooctahydro-1H-4,7-epoxyisoindol-5-yl)-5-(1-hydroxyethyl)-1H-pyrazole carboxamide] |  |  | down-regulated AR-dependent gene expression | not detected | no | yes | 47.3 min | 10.3 µL/min/mg | pure antagonists | 940 nM | 13% | visibly suppressed R1881-induced growth | 410 nM | inhibit LNCaP proliferation; also recorded: inhibited the growth of LNCaP prostate cancer cells
